Measurements published in patent US8846933B2, “N-link hydroxamic acid derivatives useful as antibacterial agents” (Pfizer Inc., priority 2009, dated 2014).

Experiments:
[1] = tested on: Pseudomonas aeruginosa UI-18: Wild-type (PA-7); assay: MIC determination (CLSI), strain PA-7; assay type: cell-based; conditions: strain PA-7; unit assumed
Outline: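 Strain tested was P. aeruginosa UI-18, a wild-type isolate labelled PA-7. Minimum inhibitory concentrations followed CLSI dilution methodology for aerobically growing bacteria (M7-A7, M100-S18).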

[2] = tested on: Escherichia coli EC-1: VOGEL, mouse virulent; assay: MIC determination (CLSI), strain EC-1; assay type: cell-based; conditions: strain EC-1; unit assumed
Outline: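 The mouse-virulent VOGEL isolate of E. coli, EC-1, served as test organism. Minimum inhibitory concentration was measured by CLSI dilution methodology (M7-A7; M100-S18 standards).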

Row | SMILES | PA-7 (MIC) [1] [µg/mL] | EC-1 (MIC) [2] [µg/mL]
1 | COc1cc(-c2ccn(CCC(C)(C(=O)NO)S(C)(=O)=O)c(=O)c2)ccc1OCCCN1CCOCC1 (centres unmarked) [Example 227, N-hydroxy-4-{4-[3-methoxy-4-(3-morpholin-4-ylpropoxy)phenyl]-2-oxopyridin-1(2H)-yl}-2-methyl-2-(methylsulfonyl)butanamide] | 64 | 64
2 | Cc1cc(OCCCN2CCOCC2)ccc1-c1ccn(CCC(C)(C(=O)NO)S(C)(=O)=O)c(=O)c1 (centres unmarked) [Example 228, N-hydroxy-2-methyl-4-{4-[2-methyl-4-(3-morpholin-4-ylpropoxy)phenyl]-2-oxopyridin-1(2H)-yl}-2-(methylsulfonyl)butanamide] | 16 | 8
3 | CC(CCn1ccc(-c2ccc(OCCCCCO)cc2)cc1=O)(C(=O)NO)S(C)(=O)=O (centres unmarked) [Example 229, N-hydroxy-4-[4-{4-[(5-hydroxypentyl)oxy]phenyl}-2-oxopyridin-1(2H)-yl]-2-methyl-2-(methylsulfonyl)butanamide] | 2 | 0.25
4 | CC(CCn1ccc(-c2ccc(S(N)(=O)=O)cc2)cc1=O)(C(=O)NO)S(C)(=O)=O (centres unmarked) [Example 230, 4-{4-[4-(aminosulfonyl)phenyl]-2-oxopyridin-1(2H)-yl}-N-hydroxy-2-methyl-2-(methylsulfonyl)butanamide] | > 64 | 64
5 | CC(O)Cc1cccc(-c2ccn(CCC(C)(C(=O)NO)S(C)(=O)=O)c(=O)c2)c1 (centres unmarked) [Example 231, N-hydroxy-4-{4-[3-(2-hydroxypropyl)phenyl]-2-oxopyridin-1(2H)-yl}-2-methyl-2-(methylsulfonyl)butanamide] | > 64 | > 64
6 | CC(CCn1ccc(-c2ccc(OCCO)cc2Cl)cc1=O)(C(=O)NO)S(C)(=O)=O (centres unmarked) [Example 232, 4-{4-[2-chloro-4-(2-hydroxyethoxy)phenyl]-2-oxopyridin-1(2H)-yl}-N-hydroxy-2-methyl-2-(methylsulfonyl)butanamide] | 16 | 16
7 | Cc1cc(-c2ccn(CCC(C)(C(=O)NO)S(C)(=O)=O)c(=O)c2)c(C)cc1OCCO (centres unmarked) [Example 233, N-hydroxy-4-{4-[4-(2-hydroxyethoxy)-2,5-dimethylphenyl]-2-oxopyridin-1(2H)-yl}-2-methyl-2-(methylsulfonyl)butanamide] | > 64 | > 64
8 | CC(CCn1ccc(-c2ccc(OCCO)c(Cl)c2Cl)cc1=O)(C(=O)NO)S(C)(=O)=O (centres unmarked) [Example 234, 4-{4-[2,3-dichloro-4-(2-hydroxyethoxy)phenyl]-2-oxopyridin-1(2H)-yl}-N-hydroxy-2-methyl-2-(methylsulfonyl)butanamide] | 32 | 64
9 | Cc1cc(-c2ccn(CCC(C)(C(=O)NO)S(C)(=O)=O)c(=O)c2)ccc1OCCO (centres unmarked) [Example 235, N-hydroxy-4-{4-[4-(2-hydroxyethoxy)-3-methylphenyl]-2-oxopyridin-1(2H)-yl}-2-methyl-2-(methylsulfonyl)butanamide] | 8 | 8
10 | CC(CCn1ccc(-c2ccc(OCCO)c(Cl)c2)cc1=O)(C(=O)NO)S(C)(=O)=O (centres unmarked) [Example 236, 4-{4-[3-chloro-4-(2-hydroxyethoxy)phenyl]-2-oxopyridin-1(2H)-yl}-N-hydroxy-2-methyl-2-(methylsulfonyl)butanamide] | 16 | 32
11 | Cc1cc(OCCO)ccc1-c1ccn(CCC(C)(C(=O)NO)S(C)(=O)=O)c(=O)c1 (centres unmarked) [Example 237, N-hydroxy-4-{4-[4-(2-hydroxyethoxy)-2-methylphenyl]-2-oxopyridin-1(2H)-yl}-2-methyl-2-(methylsulfonyl)butanamide] | 32 | > 64
12 | CC(CCn1ccc(-c2ccc(OCCCCO)c(Cl)c2)cc1=O)(C(=O)NO)S(C)(=O)=O (centres unmarked) [Example 238, 4-{4-[3-chloro-4-(4-hydroxybutoxy)phenyl]-2-oxopyridin-1(2H)-yl}-N-hydroxy-2-methyl-2-(methylsulfonyl)butanamide] | 4 | 0.5
13 | CC(CCn1ccc(-c2ccc(OCCCCO)cc2Cl)cc1=O)(C(=O)NO)S(C)(=O)=O (centres unmarked) [Example 239, 4-{4-[2-chloro-4-(4-hydroxybutoxy)phenyl]-2-oxopyridin-1(2H)-yl}-N-hydroxy-2-methyl-2-(methylsulfonyl)butanamide] | 4 | 1
14 | CC(CCn1ccc(-c2ccc(OCCCCO)c(F)c2)cc1=O)(C(=O)NO)S(C)(=O)=O (centres unmarked) [Example 240, 4-{4-[3-fluoro-4-(4-hydroxybutoxy)phenyl]-2-oxopyridin-1(2H)-yl}-N-hydroxy-2-methyl-2-(methylsulfonyl)butanamide] | 4 | 1
15 | CC(CCn1ccc(-c2ccc(OCCCCO)cc2F)cc1=O)(C(=O)NO)S(C)(=O)=O (centres unmarked) [Example 241] | 2 | 2
16 | COc1cc(-c2ccn(CCC(C)(C(=O)NO)S(C)(=O)=O)c(=O)c2)ccc1OCCCCO (centres unmarked) [Example 242, N-hydroxy-4-{4-[4-(4-hydroxybutoxy)-3-methoxyphenyl]-2-oxopyridin-1(2H)-yl}-2-methyl-2-(methylsulfonyl)butanamide] | 64 | 32

Row | SMILES | PA-7 (MIC) [1] [µg/mL] | EC-1 (MIC) [2] [µg/mL]
17 | Cc1cc(OCCCCO)ccc1-c1ccn(CCC(C)(C(=O)NO)S(C)(=O)=O)c(=O)c1 (centres unmarked) [Example 243, N-hydroxy-4-{4-[4-(4-hydroxybutoxy)-2-methylphenyl]-2-oxopyridin-1(2H)-yl}-2-methyl-2-(methylsulfonyl)butanamide] | 8 | 4
18 | CC(CCn1ccc(-c2cc(Cl)c(OCCO)cc2Cl)cc1=O)(C(=O)NO)S(C)(=O)=O (centres unmarked) [Example 244, 4-{4-[2,5-dichloro-4-(2-hydroxyethoxy)phenyl]-2-oxopyridin-1(2H)-yl}-N-hydroxy-2-methyl-2-(methylsulfonyl)butanamide] | > 64 | 32
19 | COc1cc(OCCCCO)ccc1-c1ccn(CCC(C)(C(=O)NO)S(C)(=O)=O)c(=O)c1 (centres unmarked) [Example 245] | 64 | 64
20 | CC(CCn1ccc(-c2ccc(OCCCO)c(Cl)c2)cc1=O)(C(=O)NO)S(C)(=O)=O (centres unmarked) [Example 246, 4-{4-[3-chloro-4-(3-hydroxypropoxy)phenyl]-2-oxopyridin-1(2H)-yl}-N-hydroxy-2-methyl-2-(methylsulfonyl)butanamide] | 4 | 2
21 | CC(CCn1ccc(-c2ccc(OCCCO)c(F)c2)cc1=O)(C(=O)NO)S(C)(=O)=O (centres unmarked) [Example 247, 4-{4-[3-fluoro-4-(3-hydroxypropoxy)phenyl]-2-oxopyridin-1(2H)-yl}-N-hydroxy-2-methyl-2-(methylsulfonyl)butanamide] | 8 | 4
22 | Cc1cc(-c2ccn(CCC(C)(C(=O)NO)S(C)(=O)=O)c(=O)c2)ccc1OCCCO (centres unmarked) [Example 248, N-hydroxy-4-{4-[4-(3-hydroxypropoxy)-3-methylphenyl]-2-oxopyridin-1(2H)-yl}-2-methyl-2-(methylsulfonyl)butanamide] | 4 | 2
23 | COc1cc(-c2ccn(CCC(C)(C(=O)NO)S(C)(=O)=O)c(=O)c2)ccc1OCCCO (centres unmarked) [Example 249, N-hydroxy-4-{4-[4-(3-hydroxypropoxy)-3-methoxyphenyl]-2-oxopyridin-1(2H)-yl}-2-methyl-2-(methylsulfonyl)butanamide] | 64 | > 64
24 | CC(CCn1ccc(-c2ccc(OCCCO)cc2F)cc1=O)(C(=O)NO)S(C)(=O)=O (centres unmarked) [Example 250, 4-{4-[2-fluoro-4-(3-hydroxypropoxy)phenyl]-2-oxopyridin-1(2H)-yl}-N-hydroxy-2-methyl-2-(methylsulfonyl)butanamide] | 4 | 2
25 | CC(CCn1ccc(-c2ccc(OCCCO)cc2Cl)cc1=O)(C(=O)NO)S(C)(=O)=O (centres unmarked) [Example 251, 4-{4-[2-chloro-4-(3-hydroxypropoxy)phenyl]-2-oxopyridin-1(2H)-yl}-N-hydroxy-2-methyl-2-(methylsulfonyl)butanamide] | 4 | 2
26 | Cc1cc(OCCCO)ccc1-c1ccn(CCC(C)(C(=O)NO)S(C)(=O)=O)c(=O)c1 (centres unmarked) [Example 252, N-hydroxy-4-{4-[4-(3-hydroxypropoxy)-2-methylphenyl]-2-oxopyridin-1(2H)-yl}-2-methyl-2-(methylsulfonyl)butanamide] | 16 | 16
27 | COc1cc(OCCCO)ccc1-c1ccn(CCC(C)(C(=O)NO)S(C)(=O)=O)c(=O)c1 (centres unmarked) [Example 253, N-hydroxy-4-{4-[4-(3-hydroxypropoxy)-2-methoxyphenyl]-2-oxopyridin-1(2H)-yl}-2-methyl-2-(methylsulfonyl)butanamide] | > 64 | 16
28 | CC(CCn1ccc(-c2ccc3ncccc3c2)cc1=O)(C(=O)NO)S(C)(=O)=O (centres unmarked) [Example 254] | 4 | 4
29 | CC(C)(O)Cc1ccc(-c2ccn(CCC(C)(C(=O)NO)S(C)(=O)=O)c(=O)c2)cc1 (centres unmarked) [Example 255, N-hydroxy-4-{4-[4-(2-hydroxy-2-methylpropyl)phenyl]-2-oxopyridin-1(2H)-yl}-2-methyl-2-(methylsulfonyl)butanamide] | 8 | 2
30 | Cc1cc2cc(-c3ccn(CCC(C)(C(=O)NO)S(C)(=O)=O)c(=O)c3)ccc2[nH]1 (centres unmarked) [Example 256, N-hydroxy-2-methyl-4-[4-(2-methyl-1H-indol-5-yl)-2-oxopyridin-1(2H)-yl]-2-(methylsulfonyl)butanamide] | 4 | 1
31 | Cc1cccc(-c2ccn(CCC(C)(C(=O)NO)S(C)(=O)=O)c(=O)c2)c1C (centres unmarked) [Example 257, 4-[4-(2,3-dimethylphenyl)-2-oxopyridin-1(2H)-yl]-N-hydroxy-2-methyl-2-(methylsulfonyl)butanamide] | 2 | 4
